Results published in patent US8455444B2, “CDH3 peptide and medicinal agent comprising the same” (Oncotherapy Science, Inc., priority 2007, dated 2013).
“Also recorded” adds a separate entry of the source. Where a SMILES comes first, the peptide text is derived from it.

What was measured:
Format in all cases: cell-based
HSC3 = assay: 51Cr release assay of peptide-induced human CTLs against cancer cell line; conditions: CTLs from healthy donors
Description: (§1) Human pancreatic cancer cell line PK8 was kindly provided by the Cell Resource Center for Biomedical Research, Institute of Development, Aging and Cancer, Tohoku University. Human colon cancer cell line HCT116 was kindly provided by Dr. B. Vogelstein, Johns Hopkins University (Baltimore, Md.). Human liver cancer cell line SKHep1 was kindly provided by Professor Kyogo Ito, Kurume University (Kurume, Japan).
(§2) PBMCs derived from heparinized blood of HLA-A2 positive pancreatic cancer patients, gastric cancer patients, colorectal cancer patients, or healthy donors were isolated by Ficoll-Conray density gradient centrifugation. […] DCs were pulsed with 20 μg/mL of a candidate peptide in the presence of 4 μg/mL β2-microglobulin (Sigma-Aldrich, St. Louis, Mo., USA) for two hours at 37° C. in AIM-V (Invitrogen) containing 2% heat-inactivated autologous plasma. These DCs were then irradiated (40 Gy) and incubated with CD8 positive cells. The incubation was carried out in 24-well plates, which were prepared to contain in each well 2 mL of AIM-V supplemented with 2% autologous plasma, 1×10^5 peptide-pulsed DCs, 2×10^6 CD8^+ T cells, and 5 ng/mL of human recombinant IL-7 (Wako, Osaka, Japan). After two days, these cultures were supplemented with human recombinant IL-2 (PeproTec Inc.) to a final concentration of 20 IU/mL. Two additional weekly stimulations with the same peptide-pulsed autologous DCs using the same procedure were carried out on day 7 and day 14. Six days after the last stimulation, the antigen-specific responses of induced CTLs were evaluated by ^51Cr release assay and IFN-γ ELISPOT assay.

HCT116 = assay: as above; conditions: for cytotoxicity to HCT116: FIG. 4C: CTLs from PBMCs of HLA-A2 positive cancer patients; for cytotoxicity to HCT116 (CDH3+, HLA-A2+): CTLs from healthy donors
Description: as §1, §2

T2 cells = assay: 51Cr release assay of peptide-induced human CTLs against peptide-pulsed T2 cells; conditions: CTLs induced from PBMCs of HLA-A2 positive healthy donors, three stimulations
Description: as §1
PBMCs derived from heparinized blood of HLA-A2 positive pancreatic cancer patients, gastric cancer patients, colorectal cancer patients, or healthy donors were isolated by Ficoll-Conray density gradient centrifugation. […] DCs were pulsed with 20 μg/mL of a candidate peptide in the presence of 4 μg/mL β2-microglobulin (Sigma-Aldrich, St. Louis, Mo., USA) for two hours at 37° C. in AIM-V (Invitrogen) containing 2% heat-inactivated autologous plasma. These DCs were then irradiated (40 Gy) and incubated with CD8 positive cells. […] Six days after the last stimulation, the antigen-specific responses of induced CTLs were evaluated by ^51Cr release assay and IFN-γ ELISPOT assay.
CD8 T cells sorted from PBMCs were incubated with autologous mononuclear cell (monocyte)-derived DCs pulsed with each peptide. After three stimulations, cytocidal effect against peptide-pulsed T2 cells was evaluated by ^51Cr release assay (FIG. 4A) and IFN-γ ELISPOT assay.

SKHep1/CDH3 = assay: 51Cr release assay of peptide-induced human CTLs against cancer cell line; conditions: FIG. 4C: CTLs from PBMCs of HLA-A2 positive cancer patients
Experimental: as §1
(§3) After 60 hours, the culture medium was recovered and the viral particles were pelleted by ultracentrifugation (50,000×g, two hours).
as §2

PANC1/CDH3 = assay: as above; conditions: for cytotoxicity to PANC1/CDH3: FIG. 4C: CTLs from PBMCs of HLA-A2 positive cancer patients
Experimental: as §1, §3, §2

SKHep1 = assay: as above; conditions: CTLs from healthy donors
Description: as §1, §2

PANC1 = assay: as above; conditions: CTLs from healthy donors
Description: as §1, §2

PK8 = assay: as above; conditions: CTLs from healthy donors
Description: as §1, §2

Question: With `CC[C@H](C)[C@H](NC(=O)[C@@H](NC(=O)[C@@H](N)Cc1ccccc1)[C@@H](C)CC)C(=O)N[C@@H](CCC(=O)O)C(=O)N[C@@H](CC(N)=O)C(=O)N[C@@H](CC(C)C)C(=O)N[C@@H](CCCCN)C(=O)N[C@@H](C)C(=O)N[C@@H](C)C(=O)O` [CDH3-7, FIIENLKAA] (H-FIIENLKAA-OH) as the compound, how does the “cytotoxicity to HSC3 (CDH3+, HLA-A2+)” value (HSC3) read?
Answer: exhibited cytotoxicity

Question: What about the “cytotoxicity to HCT116” value (HCT116) of the same compound?
Answer: exhibited cytotoxicity

Question: And the “cytotoxicity (cytocidal effect) against peptide-pulsed T2 cells” value (T2 cells; listed as CDH3-7757-765)?
Answer: exhibited cytocidal effect; also recorded: exhibited cytotoxicity

Question: And the “cytotoxicity to SKHep1/CDH3 (CDH3+, HLA-A2+)” value (SKHep1/CDH3)?
Answer: exhibited cytotoxicity

Question: And the “cytotoxicity to PANC1/CDH3” value (PANC1/CDH3)?
Answer: exhibited cytotoxicity

Question: With `CC(C)C[C@H](NC(=O)[C@@H](NC(=O)[C@H](C)NC(=O)[C@H](Cc1ccc(O)cc1)NC(=O)[C@@H](NC(=O)[C@H](CC(N)=O)NC(=O)[C@H](Cc1ccc(O)cc1)NC(=O)[C@H](CC(C)C)NC(=O)[C@@H](N)CO)[C@@H](C)O)[C@@H](C)O)C(=O)O` [HIV peptide, SLYNTYATL, reference compound] (H-SLYNTYATL-OH) as the compound, how does the “cytotoxicity to HCT116 (CDH3+, HLA-A2+)” value (HCT116) read?
Answer: did not exhibit cytotoxicity; also recorded: did not show cytotoxicity

Question: `CC[C@H](C)[C@H](NC(=O)[C@@H](N)Cc1ccccc1)C(=O)N[C@@H](CC(C)C)C(=O)N1CCC[C@H]1C(=O)N[C@H](C(=O)N[C@@H](CC(C)C)C(=O)NCC(=O)N[C@@H](C)C(=O)N[C@H](C(=O)O)C(C)C)C(C)C` [CDH3-4, FILPVLGAV] (H-FILPVLGAV-OH) was tested. Which “cytotoxicity to HSC3 (CDH3+, HLA-A2+)” value (HSC3) did it give?
Answer: exhibited in healthy donors cytotoxicity

Question: And the “cytotoxicity to SKHep1 (CDH3−, HLA-A2+)” value (SKHep1)?
Answer: did not exhibit the same effect

Question: And the “cytotoxicity to PANC1 (CDH3−, HLA-A2+)” value (PANC1)?
Answer: did not exhibit the same effect

Question: And the “cytotoxicity to HCT116 (CDH3+, HLA-A2+)” value (HCT116)?
Answer: exhibited in healthy donors cytotoxicity

Question: What about the “cytotoxicity to HCT116” value (HCT116) of the same compound?
Answer: exhibited cytotoxicity

Question: And the “cytotoxicity to PK8 (CDH3+, HLA-A2−)” value (PK8)?
Answer: did not exhibit the same effect

Question: And the “cytotoxicity (cytocidal effect) against peptide-pulsed T2 cells” value (T2 cells; listed as CDH3-4655-663)?
Answer: exhibited cytocidal effect; also recorded: exhibited cytotoxicity

Question: What about the “cytotoxicity to SKHep1/CDH3 (CDH3+, HLA-A2+)” value (SKHep1/CDH3) of the same compound?
Answer: exhibited cytotoxicity

Question: What about the “cytotoxicity to PANC1/CDH3 (CDH3+, HLA-A2+)” value (PANC1/CDH3; CTLs from healthy donors) of the same compound?
Answer: exhibited in healthy donors cytotoxicity

Question: What about the “cytotoxicity to PANC1/CDH3” value (PANC1/CDH3) of the same compound?
Answer: exhibited cytotoxicity
